# Measurements published in US11033577B2, “Polymer conjugate of hexa-coordinated platinum complex” (priority 2015, dated 2021).
# Assays:
# [1] = tested on: Human stomach cancer 4-1ST; assay: Antitumor Test 2, human stomach cancer 4-1ST transplanted mouse; format: in vivo, BALB/cA-nu/nu mouse; conditions: caudal vein
# Description: Human stomach cancer 4-1ST was subcultured subcutaneously in a BALB/cA-nu/nu mouse (hereinafter, nude mouse). Human stomach cancer 4-1ST was obtained from the Central Institute for Experimental Animals.
# (§1) Human stomach cancer 4-1ST was collected subcutaneously from a nude mouse and was cut into blocks each measuring about 3 mm on each side. The tumor blocks thus obtained were transplanted subcutaneously on the dorsal side of nude mice using a trocar. On the 17th day after transplantation, where the average tumor volume had reached about 100 to 200 mm^3, various drugs were administered through the caudal vein. The use and dose (in terms of drug) of the various administered drugs are as follows. In regard to the Example 11 compound, the compound was dissolved in a 5% glucose injectable solution, and the solution was administered once at a dose of 15 mg/kg or 7.5 mg/kg. In regard to the Example 12 compound, the compound was dissolved in a 5% glucose injectable solution, and the solution was administered once at a dose of 30 mg/kg or 15 mg/kg. As a control drug, l-OHP was administered once at a dose of 18 mg/kg, and cisplatin was administered once at a dose of 10 mg/kg. Regarding the amounts of administration of l-OHP and cisplatin and the high amounts of administration of the various Example compounds, the maximum tolerable doses (MTD doses) were employed for all of the compounds. After the administration, the major axis (L) and the minor axis (W) of the tumor were measured over time using calipers, and the tumor volume (L×W×W×0.5) was calculated. The test was performed by employing four animals per group for all of a non-administered group as well as various drug-administered groups. During the period from the initiation of administration to the 21st day after administration, the relative tumor volume (T/C (%)) of each drug-administered group based on the relative tumor volume of a non-drug-administered group as 100 was calculated by the following formula as an index for the antitumor effect. T/C(%)=Relative tumor volume of administered group/relative tumor volume of non-administered group×100 Formula: […]
# [2] = Body weight of mice in Antitumor Test 3; format: in vivo; conditions: caudal vein
# Procedure: as §1, with “20th” for “17th”, “7” for “11”, “16” for “12”, “18 mg/kg or 9” for “18”
# (§2) After the administration, the body weights of the mice were measured over time. During the period from the initiation of administration to the 21st day after administration, the changes in the relative body weight based on the body weight on the day of initiation of administration as 1 are presented in Table 7.
# [3] = Body weight of mice in Antitumor Test 2; format: in vivo; conditions: 18 mg/kg once, caudal vein
# Procedure: as §1
# as §2, with “5.” for “7.”
smiles,measurement,setting,value
"N.N.[Cl][Pt][Cl] [Cisplatin, cisplatin]",T/C (%) in various numbers of days after administration,"[1]; 10 mg/kg once, day 0",100%
same,T/C (%) in various numbers of days after administration,"[1]; 10 mg/kg once, day 4",77%
same,T/C (%) in various numbers of days after administration,"[1]; 10 mg/kg once, day 7",43%
same,T/C (%) in various numbers of days after administration,"[1]; 10 mg/kg once, day 11",32%
same,T/C (%) in various numbers of days after administration,"[1]; 10 mg/kg once, day 14",36%
same,T/C (%) in various numbers of days after administration,"[1]; 10 mg/kg once, day 18",37%
same,T/C (%) in various numbers of days after administration,"[1]; 10 mg/kg once, day 21",42%
"O=C1[O][Pt]2([NH][C@@H]3CCCC[C@H]3[NH]2)[O]C1=O [l-OHP, oxaliplatin]",T/C (%) in various numbers of days after administration,"[1]; 18 mg/kg once, day 0",100%
same,T/C (%) in various numbers of days after administration,"[1]; 18 mg/kg once, day 4",84%
same,T/C (%) in various numbers of days after administration,"[1]; 18 mg/kg once, day 7",52%
same,T/C (%) in various numbers of days after administration,"[1]; 18 mg/kg once, day 11",50%
same,T/C (%) in various numbers of days after administration,"[1]; 18 mg/kg once, day 14",50%
same,T/C (%) in various numbers of days after administration,"[1]; 18 mg/kg once, day 18",60%
same,T/C (%) in various numbers of days after administration,"[1]; 18 mg/kg once, day 21",57%
same,Relative body weight in numbers of days after administration,"[2]; 9 mg/kg once, day 0",1.00
same,Relative body weight in numbers of days after administration,"[2]; 9 mg/kg once, day 4",0.96
same,Relative body weight in numbers of days after administration,"[2]; 9 mg/kg once, day 7",1.00
same,Relative body weight in numbers of days after administration,"[2]; 9 mg/kg once, day 11",1.01
same,Relative body weight in numbers of days after administration,"[2]; 9 mg/kg once, day 14",1.02
same,Relative body weight in numbers of days after administration,"[2]; 9 mg/kg once, day 18",1.02
same,Relative body weight in numbers of days after administration,"[2]; 9 mg/kg once, day 21",1.02
same,Relative body weight in numbers of days after administration,"[2]; 18 mg/kg once, day 0",1.00
same,Relative body weight in numbers of days after administration,"[2]; 18 mg/kg once, day 4",0.85
same,Relative body weight in numbers of days after administration,"[2]; 18 mg/kg once, day 7",0.89
same,Relative body weight in numbers of days after administration,"[2]; 18 mg/kg once, day 11",0.98
same,Relative body weight in numbers of days after administration,"[2]; 18 mg/kg once, day 14",1.01
same,Relative body weight in numbers of days after administration,"[2]; 18 mg/kg once, day 18",1.02
same,Relative body weight in numbers of days after administration,"[2]; 18 mg/kg once, day 21",1.04
same,Relative body weight in numbers of days after administration,[3]; day 0,1.00
same,Relative body weight in numbers of days after administration,[3]; day 4,0.78
same,Relative body weight in numbers of days after administration,[3]; day 7,0.83
same,Relative body weight in numbers of days after administration,[3]; day 11,0.93
same,Relative body weight in numbers of days after administration,[3]; day 14,1.03
same,Relative body weight in numbers of days after administration,[3]; day 18,1.09
same,Relative body weight in numbers of days after administration,[3]; day 21,1.05
